Measurements published in patent US8987486B2, “Trans-2-decenoic acid derivative and pharmaceutical agent containing the same” (Nagoya Industrial Science Research Institute, priority 2010, dated 2015).

Tests used:
Format in all cases: in vivo
[1] = test system: Male ddY strain mice loaded with forced swimming stress; experiment: Suppressive effect for depressive symptom as a result of stress loading (forced swimming); conditions: 100 μg/kg body weight intraperitoneally every day, thirteenth day after stress loading, versus PBS control
Protocol: Male ddY strain mice of seven weeks age were loaded, as the stress, with forced swimming of 6 minutes every day for 2 weeks and the evaluation of suppressive effect for depression symptom was conducted. Thus, as from the initiation of loading the stress, the compound 1 dissolved in 0.1% DMSO was intraperitoneally administered every day in a dose of 100 μg/kg body weight and the immobility time of the mice upon the forced swimming was measured (n=5). As a control, a phosphate-buffered physiological saline (PBS) was intraperitoneally administered to the mice during two weeks and the immobility time was measured (n=4). The cases to which no stress was loaded were also administered with each of the compound 1 and the phosphate buffered saline (PBS) as same as in the cases to which the stress was loaded. Incidentally the test of significance was conducted by means of a two-way ANOVA, Bonferroni test.

[2] = test system: Spinal cord injury model rats; experiment: Repairing action for the spinal cord injury, BBB scale (complete cut at T10); conditions: 100 μg/kg body weight intraperitoneally once daily, after six weeks, n=6
Protocol: Spinal cord injury model rats were prepared and the repairing action of the compound 1 for the spinal cord injury was investigated. The compound 1 was dissolved in a phosphate buffered saline (PBS) and intraperitoneally administered to each spinal cord injury model rat once daily in a dose of 100 μg/kg body weight. As a control, PBS was similarly administered.
Female Wistar rats of seven weeks age were anesthetized with pentobarbital (40 mg/kg), the spinal column was exposed, vertebral arch of the ninth thoracic vertebra was excised and the tenth thoracic cord (T10) was completely cut using a sharp knife. After the back muscle and the skin were satured, paralysis of hind limbs was confirmed to prepare spinal cord injury model rats.
For each of the groups administered with the compound 1 and PBS, the improvement in motor function of the spinal cord injury model rats during six weeks was evaluated every day according to a BBB scale (Basso D M, et al., J. Neurotrauma, 12:1-21 (1995)) (0 for immediately after the injury while 21 for non-injury). Incidentally, the test of significance was conducted by a two-way ANOV, Bonferroni test.

[3] = test system: chronic mild stress-induced depression model mice; experiment: Tail suspension test in chronic mild stress-induced depression model mice; conditions: control 103.18±15.96 seconds
Protocol: Female ddY strain mice of seven weeks age (n=8 to 12) were (A) subjected to forced swimming for 15 minutes and then to normal breeding for two clays, (B) subjected to breeding in an inclined cage for two days and then to normal breeding for one day, (C) subjected to breeding for one day where the floor mat was made wet and then to normal breeding for one day and (D) subjected to breeding for one day using a cage which was rotated at the rate of 180 rotations/minute and then to normal breeding for one clay. Further, (B) to (D) were repeated for two times and stress was loaded for three weeks in total to prepare chronic mild stress-induced depression model mice. During that time, the compound of the present invention dissolved in PBS or in a PBS solvent containing DMSO, etc. was orally administered once daily for three weeks and, after that, the suppressive effect for depressive symptom was evaluated by means of a tail suspension test. Thus, the area which was 1 cm from the tip of the tail of a mouse was grasped with hand and kept at the height of 10 cm from the floor, an observation was conducted for six minutes and the length of immobility time which is an index for the depressive symptom was measured. Incidentally, the test of significance was carried out by a one-way ANOVA, Tukey's Multiple Comparison Test.

For `CCCCCCC/C=C/C(=O)OCCN(C)C` [Compound 1, (E)-2-(dimethylamino)ethyl dec-2-enoate], the “immobility time upon forced swimming” value [1] was “significantly shortened the immobility time” and the “mean value of BBB scores±SE” value [2] was 11.60±2.2.

In the case of `CCCCCCC/C=C/C(=O)OCCN(CC)CC` [Compound 6, (E)-2-(diethylamino)ethyl dec-2-enoate], the “immobility time (tail suspension test)” value ([3]; 1,500 orally once daily for three weeks) is reported as 80.67 ± 23.94 s.

For `CCCCCCC/C=C/C(=O)SCCN(C)C` [Compound 55, (E)-S-2-(dimethylamino)ethyl dec-2-enethioate], the “immobility time (tail suspension test)” value ([3]; 1,500 μg/kg orally once daily for three weeks) was 63.72 ± 10.13 s.
